Measured values from patent US8217035B2, “Pyrimidine derivatives used as PI-3-kinase inhibitors” (Novartis AG, priority 2006, dated 2012).

Columns and labels:
[1] = target: PI3 kinase alpha (Homo sapiens, UniProt P42336); experiment: PI3K ATP depletion assay (Biological Method 1, Assay 3; KinaseGlo luminescence); format: biochemical; details: ATP depletion assay; read-out: PI3 Kinase Alpha, IC50
In short: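 Compound in DMSO was mixed with 10 nM PI3 kinase and 5 μg/mL phosphatidylinositol, and the reaction was started with 2 μM ATP. It ran to about 50% ATP depletion and was stopped with KinaseGlo.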

[2] = test system: A2780 ovarian cancer cells; experiment: Cellular proliferation in A2780 cells, Cell Titer Glo (Biological Method 4); format: cell-based; details: Homo sapiens; ovarian cancer cell line A2780
In short: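 A2780 cells seeded at 1,000/well in DMEM with 10% FBS, at least 2 h before compound, then exposed 72 h at 37 °C, 5% CO2. Viable cells measured by Cell Titer Glo luminescence; EC50 calculated from duplicate conditions.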

Sequence of PI3 kinase alpha (P42336 whole entry): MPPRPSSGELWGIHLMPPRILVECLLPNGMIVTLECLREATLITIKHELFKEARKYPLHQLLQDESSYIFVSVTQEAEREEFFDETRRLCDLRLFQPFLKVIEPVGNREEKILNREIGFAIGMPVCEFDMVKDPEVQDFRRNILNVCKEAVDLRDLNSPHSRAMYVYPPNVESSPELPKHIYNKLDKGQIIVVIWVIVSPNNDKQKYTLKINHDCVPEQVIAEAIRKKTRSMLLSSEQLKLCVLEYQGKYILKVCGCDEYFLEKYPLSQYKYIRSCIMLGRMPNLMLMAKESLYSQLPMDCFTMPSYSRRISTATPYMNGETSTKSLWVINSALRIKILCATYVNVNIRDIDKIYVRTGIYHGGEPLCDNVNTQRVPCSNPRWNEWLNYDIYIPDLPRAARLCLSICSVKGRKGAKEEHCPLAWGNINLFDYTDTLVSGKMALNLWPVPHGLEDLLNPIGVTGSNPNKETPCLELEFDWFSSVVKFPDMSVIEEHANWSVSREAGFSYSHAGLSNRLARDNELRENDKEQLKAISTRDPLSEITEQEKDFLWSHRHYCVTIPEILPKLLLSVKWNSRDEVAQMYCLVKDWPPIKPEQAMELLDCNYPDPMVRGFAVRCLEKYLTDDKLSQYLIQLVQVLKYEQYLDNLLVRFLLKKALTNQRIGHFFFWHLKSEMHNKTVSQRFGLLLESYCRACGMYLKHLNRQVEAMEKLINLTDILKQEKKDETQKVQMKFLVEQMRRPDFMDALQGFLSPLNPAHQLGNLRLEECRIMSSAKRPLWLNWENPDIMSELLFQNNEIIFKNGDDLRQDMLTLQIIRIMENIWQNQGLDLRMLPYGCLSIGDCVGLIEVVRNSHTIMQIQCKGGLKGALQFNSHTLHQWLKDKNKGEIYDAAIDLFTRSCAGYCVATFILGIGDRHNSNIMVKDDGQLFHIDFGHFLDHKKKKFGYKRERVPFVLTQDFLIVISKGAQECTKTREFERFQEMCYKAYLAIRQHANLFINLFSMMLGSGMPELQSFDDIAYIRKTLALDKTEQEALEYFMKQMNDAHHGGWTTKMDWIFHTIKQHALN
Sequence of PI3 kinase alpha (P27986 whole entry partner): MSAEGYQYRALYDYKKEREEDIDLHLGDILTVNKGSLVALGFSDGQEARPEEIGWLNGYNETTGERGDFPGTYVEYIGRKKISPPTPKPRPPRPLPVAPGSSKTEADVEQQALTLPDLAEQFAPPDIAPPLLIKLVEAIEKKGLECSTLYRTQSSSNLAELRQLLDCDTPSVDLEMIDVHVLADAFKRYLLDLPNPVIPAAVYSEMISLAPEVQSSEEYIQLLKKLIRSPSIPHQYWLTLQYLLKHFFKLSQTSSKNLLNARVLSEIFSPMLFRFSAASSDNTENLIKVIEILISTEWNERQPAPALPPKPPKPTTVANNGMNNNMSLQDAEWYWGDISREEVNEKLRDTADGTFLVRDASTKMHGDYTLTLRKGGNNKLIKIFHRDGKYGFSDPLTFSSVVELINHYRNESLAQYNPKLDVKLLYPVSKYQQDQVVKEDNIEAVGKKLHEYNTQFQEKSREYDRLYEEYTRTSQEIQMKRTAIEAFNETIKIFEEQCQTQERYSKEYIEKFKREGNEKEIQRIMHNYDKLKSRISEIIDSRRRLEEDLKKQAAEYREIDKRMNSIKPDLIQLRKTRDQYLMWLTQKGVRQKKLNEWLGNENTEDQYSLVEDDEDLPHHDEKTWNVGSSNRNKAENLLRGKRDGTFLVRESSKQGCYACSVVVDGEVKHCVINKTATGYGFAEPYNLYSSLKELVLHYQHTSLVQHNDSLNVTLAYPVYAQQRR

Compound	IC50 [1] [nM]	EC50 [2] [nM]
Cc1c(-c2cnc(N)nc2)nc(N2CCOCC2)nc1-c1cnc(N)nc1 [Compound 484]	< 1000	< 10000
CC(C)N1CCN(c2ccc(Nc3cc(-c4cnc(N)cc4C(F)(F)F)nc(N4CCOCC4)n3)cn2)CC1 [Compound 488]	< 1000	< 10000
Nc1cc(C(F)(F)F)c(-c2cc(Nc3cnc4ccc(OCCN5CCCC5)cc4c3)nc(N3CCOCC3)n2)cn1 [Compound 489]	< 1000	< 10000
CC(C)(C)OC(=O)CNc1ccc(Nc2cc(-c3cnc(N)cc3C(F)(F)F)nc(N3CCOCC3)n2)cn1 [Compound 491]	< 1000	< 25000
COc1ccc2cc(Nc3cc(-c4ccc(N)nc4)nc(N4CCOCC4)n3)cnc2c1 [Compound 494]	< 1000	< 25000
Nc1ncc(-c2cc(Nc3cnc4ccc(OC(F)(F)F)cc4c3)nc(N3CCOCC3)n2)cn1 [Compound 495]	< 1000	< 25000
Nc1ccc(-c2cc(Nc3ccc(NCCN4CCCC4)nc3)nc(N3CCOCC3)n2)cn1 [Compound 497]	< 1000	< 10000
CN(C)c1nc2ccccc2cc1-c1cc(-c2ccc(N)nc2)nc(N2CCOCC2)n1 [Compound 500]	< 1000	< 10000
CN1CCC(Nc2ccc(Nc3cc(-c4ccc(N)nc4)nc(N4CCOCC4)n3)cn2)CC1 [Compound 501]	< 1000	< 10000
CN(C)c1ccc(-c2cc(-c3ccc(N)nc3)nc(N3CCOCC3)n2)cn1 [Compound 505]	< 1000	< 10000
Nc1ccc(-c2cc(-c3cccnc3F)nc(N3CCOCC3)n2)cn1 [Compound 508]	< 1000	< 10000
CC(C)N1CCN(c2ccc(Nc3cc(-c4ccc(N)nc4)nc(N4CCOCC4)n3)cn2)CC1 [Compound 509]	< 1000	< 10000
Nc1ncc(-c2cc(OCCCN3CCOCC3)nc(N3CCOCC3)n2)cn1 [Compound 511]	< 1000	< 10000
Nc1ccc(-c2cc(Oc3cccnc3)nc(N3CCOCC3)n2)cn1 [Compound 512]	< 1000	< 10000
CN1CCC(Oc2cc(-c3cnc(N)nc3)nc(N3CCOCC3)n2)CC1 [Compound 514]	< 1000	< 10000
Nc1ncc(-c2cc(OC3CCOCC3)nc(N3CCOCC3)n2)cn1 [Compound 515]	< 1000	< 1000

Compound	IC50 [1] [nM]	EC50 [2] [nM]
Nc1ncc(-c2cc(-c3cccnc3)nc(N3CCOCC3)n2)cn1 [Compound 518]	< 1000	< 1000
Nc1ncc(-c2cc(N[C@@H]3CN4CCC3CC4)nc(N3CCOCC3)n2)cn1 [Compound 520]	< 1000	< 10000
Nc1ncc(-c2cc(Nc3ccc4[nH]cnc4c3)nc(N3CCOCC3)n2)cn1 [Compound 521]	< 1000	< 10000
Nc1ncc(-c2cc(Nc3ccc4[nH]ncc4c3)nc(N3CCOCC3)n2)cn1 [Compound 522]	< 1000	< 10000
Nc1ncc(-c2cc(Cl)nc(N3CCOCC3)n2)cn1 [Compound 523]	< 1000	< 10000
CS(=O)(=O)N1CC[C@H](Oc2cc(-c3cnc(N)cc3C(F)(F)F)nc(N3CCOCC3)n2)C1 [Compound 524]	< 1000	< 10000
Nc1ncc(-c2cc(O[C@@H]3CCCN(C(=O)OC4CCCC4)C3)nc(N3CCOCC3)n2)c(N)n1 [Compound 526]	< 1000	< 10000
CC(C)OC(=O)N1CCC[C@@H](Oc2cc(-c3cnc(N)nc3N)nc(N3CCOCC3)n2)C1 [Compound 527]	< 1000	< 10000
Nc1ncc(-c2cc(O[C@H]3CCCN(C(=O)c4ccc(F)cc4)C3)nc(N3CCOCC3)n2)c(N)n1 [Compound 528]	< 1000	< 10000
CC(=O)N1CCC[C@H](Oc2cc(-c3cnc(N)nc3N)nc(N3CCOCC3)n2)C1 [Compound 529]	< 1000	< 10000
Nc1ncc(-c2cc(O[C@H]3CCOC3)nc(N3CCOCC3)n2)c(C(F)(F)F)n1 [Compound 530]	< 1000	< 10000
Nc1ncc(-c2cc(O[C@@H]3CCOC3)nc(N3CCOCC3)n2)c(C(F)(F)F)n1 [Compound 531]	< 1000	< 10000
Nc1cc(C(F)(F)F)c(-c2cc(O[C@H]3CCN(C(=O)c4ccccc4)C3)nc(N3CCOCC3)n2)cn1 [Compound 532]	< 1000	< 10000
CC(C)OC(=O)N1CC[C@H](Oc2cc(-c3cnc(N)cc3C(F)(F)F)nc(N3CCOCC3)n2)C1 [Compound 534]	< 1000	< 10000
COC(=O)N1CC[C@@H](Oc2cc(-c3cnc(N)cc3C(F)(F)F)nc(N3CCOCC3)n2)C1 [Compound 539]	< 1000	< 10000
CS(=O)(=O)N1CC[C@@H](Oc2cc(-c3cnc(N)cc3C(F)(F)F)nc(N3CCOCC3)n2)C1 [Compound 540]	< 1000	< 10000

Now from value to molecule:

IC50 [1] [nM]	EC50 [2] [nM]	Compound
< 1000	< 10000	Nc1ccc(-c2cc(Nc3cccc(F)c3)nc(N3CCOCC3)n2)cn1 [Compound 439]
< 1000	< 10000	Nc1ccc(-c2cc(Nc3ccccc3F)nc(N3CCOCC3)n2)cn1 [Compound 440]
< 1000	< 10000	N#Cc1ccccc1Nc1cc(-c2ccc(N)nc2)nc(N2CCOCC2)n1 [Compound 441]
< 1000	< 10000	COc1ccc(Nc2cc(-c3ccc(N)nc3)nc(N3CCOCC3)n2)cc1 [Compound 442]
< 1000	< 25000	Nc1cc(C(F)(F)F)c(-c2cc(Nc3ccc4c(c3)OCCO4)nc(N3CCOCC3)n2)cn1 [Compound 446]
< 1000	< 25000	Nc1cc(C(F)(F)F)c(-c2cc(Nc3ccncc3)nc(N3CCOCC3)n2)cn1 [Compound 447]
< 1000	< 10000	COc1ncccc1Nc1cc(-c2ccc(N)nc2)nc(N2CCOCC2)n1 [Compound 448]
< 1000	< 10000	N#Cc1ccccc1Nc1cc(-c2cnc(N)nc2)nc(N2CCOCC2)n1 [Compound 449]
< 1000	< 10000	Cc1cc(Nc2cc(-c3cnc(N)[nH]c3=O)nc(N3CCOCC3)n2)ccn1 [Compound 451]
< 1000	< 10000	COC(=O)N1CCC[C@@H](Oc2cc(-c3cnc(N)cc3C(F)(F)F)nc(N3CCOCC3)n2)C1 [Compound 452]
< 1000	< 10000	CC(=O)N1CCC[C@@H](Oc2cc(-c3cnc(N)cc3C(F)(F)F)nc(N3CCOCC3)n2)C1 [Compound 453]
< 1000	< 10000	COC(=O)N1CCC[C@H](Oc2cc(-c3cnc(N)cc3C(F)(F)F)nc(N3CCOCC3)n2)C1 [Compound 454]
< 1000	< 10000	CC(=O)N1CCC[C@H](Oc2cc(-c3cnc(N)cc3C(F)(F)F)nc(N3CCOCC3)n2)C1 [Compound 455]
< 1000	< 10000	CC(C)(C)OC(=O)N1CCC(Oc2cc(-c3cnc(N)cc3C(F)(F)F)nc(N3CCOCC3)n2)CC1 [Compound 456]
< 1000	< 10000	CC(C)C(=O)N1CCC(Oc2cc(-c3cnc(N)cc3C(F)(F)F)nc(N3CCOCC3)n2)CC1 [Compound 458]
< 1000	< 10000	CC(C)OC(=O)N1CCC(Oc2cc(-c3cnc(N)cc3C(F)(F)F)nc(N3CCOCC3)n2)CC1 [Compound 460]
< 1000	< 10000	CS(=O)(=O)N1CCC(Oc2cc(-c3cnc(N)cc3C(F)(F)F)nc(N3CCOCC3)n2)CC1 [Compound 461]

IC50 [1] [nM]	EC50 [2] [nM]	Compound
< 1000	< 10000	Nc1ncc(-c2ccnc(N3CCOCC3)n2)c(=O)[nH]1 [Compound 462]
< 1000	< 25000	Nc1ncc(-c2ccnc(N3CCOCC3)n2)c(N)n1 [Compound 463]
< 1000	< 25000	Nc1ncc(-c2cc(Cl)nc(N3CCOCC3)n2)c(N)n1 [Compound 464]
< 1000	< 10000	N#Cc1cc(-c2cnc(N)nc2C(F)(F)F)nc(N2CCOCC2)n1 [Compound 465]
< 1000	< 25000	Nc1cc(C(F)(F)F)c(-c2ccnc(N3CCOCC3)n2)cn1 [Compound 466]
< 1000	< 25000	Nc1cc(C(F)(F)F)c(-c2cc(Cl)nc(N3CCOCC3)n2)cn1 [Compound 467]
< 1000	< 25000	Cc1nc(N)ncc1-c1nc(N2CCOCC2)nc(Cl)c1C [Compound 468]
< 1000	< 10000	Nc1ncc(-c2cc(C(F)(F)F)nc(N3CCOCC3)n2)cn1 [Compound 472]
< 1000	< 25000	Nc1ncc(-c2nc(N3CCOCC3)ncc2C(F)(F)F)cn1 [Compound 474]
< 1000	< 10000	COc1cncc(-c2nc(N3CCOCC3)nc(-c3cnc(N)nc3)c2C)c1 [Compound 475]
< 1000	< 10000	COc1ccc(Nc2cc(-c3cnc(N)nc3C)nc(N3CCOCC3)n2)cn1 [Compound 476]
< 1000	< 10000	Cc1nc(N)ncc1-c1cc(Nc2ccc3c(c2)OCCO3)nc(N2CCOCC2)n1 [Compound 477]
< 1000	< 25000	Cc1nc(N)ncc1-c1ccnc(N2CCOCC2)n1 [Compound 478]
< 1000	< 10000	COc1ccc(Nc2nc(N3CCOCC3)nc(-c3cnc(N)nc3)c2C)cn1 [Compound 480]
< 1000	< 1000	Cc1c(Nc2ccc3c(c2)OCCO3)nc(N2CCOCC2)nc1-c1cnc(N)nc1 [Compound 481]
< 1000	< 10000	Cc1cnc(N2CCOCC2)nc1-c1cnc(N)nc1 [Compound 482]
< 1000	< 25000	Cc1c(Cl)nc(N2CCOCC2)nc1-c1cnc(N)nc1 [Compound 483]
